One compound from ChEMBL document CHEMBL2074068, “Flavonoid permeability across an in situ model of the blood-brain barrier” (Free Radic Biol Med, 2004) can be followed below.

The target in data set [1] is T1, ATP-dependent translocase ABCB1 (Homo sapiens, UniProt P08183). The data set is described as follows: TP_TRANSPORTER: cell accumulation in MDR1-expressing MDCK cells. Format: functional, cell-based. The note with it: dog.
The target of data set [2] is T1, ATP-dependent translocase ABCB1. The experiment in a line: TP_TRANSPORTER: cell accumulation of colchicine in the presence of Naringenin at a concentration of 100uM in MDR1-expressing MDCK cells. Format: functional, cell-based. As to conditions: dog.

T1 sequence (P08183 whole entry): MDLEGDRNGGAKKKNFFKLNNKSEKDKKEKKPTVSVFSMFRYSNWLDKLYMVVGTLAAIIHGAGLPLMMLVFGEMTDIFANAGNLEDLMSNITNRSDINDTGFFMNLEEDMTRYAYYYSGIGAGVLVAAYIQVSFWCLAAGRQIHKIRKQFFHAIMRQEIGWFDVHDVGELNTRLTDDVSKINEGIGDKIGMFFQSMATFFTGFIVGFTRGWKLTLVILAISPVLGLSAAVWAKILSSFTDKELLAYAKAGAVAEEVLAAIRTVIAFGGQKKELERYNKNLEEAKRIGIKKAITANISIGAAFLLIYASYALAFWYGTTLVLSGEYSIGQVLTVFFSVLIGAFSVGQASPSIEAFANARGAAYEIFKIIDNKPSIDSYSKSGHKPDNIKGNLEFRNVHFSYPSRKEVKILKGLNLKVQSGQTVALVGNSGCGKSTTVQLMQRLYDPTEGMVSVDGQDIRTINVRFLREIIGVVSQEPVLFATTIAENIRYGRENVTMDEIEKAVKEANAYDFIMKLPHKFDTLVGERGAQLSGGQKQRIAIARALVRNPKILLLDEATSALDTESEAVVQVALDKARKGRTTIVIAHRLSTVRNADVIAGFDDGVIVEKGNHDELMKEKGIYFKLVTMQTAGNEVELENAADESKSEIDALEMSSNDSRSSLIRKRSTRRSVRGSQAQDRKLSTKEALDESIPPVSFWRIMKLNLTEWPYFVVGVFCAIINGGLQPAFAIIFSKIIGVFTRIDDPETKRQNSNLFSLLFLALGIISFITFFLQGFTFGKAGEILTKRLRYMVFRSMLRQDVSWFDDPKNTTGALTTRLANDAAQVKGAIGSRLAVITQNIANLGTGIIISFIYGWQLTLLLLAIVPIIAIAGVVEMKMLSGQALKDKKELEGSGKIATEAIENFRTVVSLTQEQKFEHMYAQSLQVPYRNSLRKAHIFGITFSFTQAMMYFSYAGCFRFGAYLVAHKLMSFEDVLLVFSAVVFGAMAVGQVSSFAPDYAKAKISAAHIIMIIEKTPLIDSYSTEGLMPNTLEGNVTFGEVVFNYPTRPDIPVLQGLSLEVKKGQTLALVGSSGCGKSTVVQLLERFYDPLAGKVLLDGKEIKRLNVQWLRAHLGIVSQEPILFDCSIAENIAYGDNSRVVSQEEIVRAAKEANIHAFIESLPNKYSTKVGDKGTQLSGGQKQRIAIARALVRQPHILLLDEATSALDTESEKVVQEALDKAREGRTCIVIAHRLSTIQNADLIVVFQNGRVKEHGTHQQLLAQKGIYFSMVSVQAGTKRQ

As to `O=C1C[C@@H](c2ccc(O)cc2)Oc2cc(O)cc(O)c21` [NARINGENIN], the Activity result in data set [1] was “substrate [+]”; in data set [2], “inhibitor [+]”.
